Patent publication US20250017878A1 (Chronic Airway Therapeutics Limited, priority 2021, published 2025)

Columns and labels:
asthmatic mice [1] = assay: Decrease in airway resistance (Raw) by period of administration, Example 8 / Table 2; type: in vivo
Protocol: (§1) The periods of administration of the agents are 15 minutes, 2 days, and 28 days. […] This strongly supports the concept of combination therapy, such as with an inverse agonist and an agonist.

[2] = tested on: asthmatic mice (ovalbumin-sensitized and ovalbumin-challenged); assay: Airway responsiveness to methacholine (airway resistance Raw, forced oscillation) in murine model of asthma, Example 1; type: in vivo, Balb/cJ mice; settings: for airway responsiveness to methacholine provocation (Raw), chronic treatment: drug delivered for 28 days (chow or osmotic minipump); for airway responsiveness to methacholine provocation (Raw), acute treatment: single intravenous bolus 15 minutes before methacholine
Protocol: The results obtained in drug-treated animals were compared with those obtained in vehicle-treated counterparts (controls) in experiments performed in close temporal relationship. […] Mice were sensitized with subcutaneous injection of 25 μg of ovalbumin adsorbed to aluminum hydroxide on protocol days 2, 9, and 16. Subsequently, mice were given 50 μL of saline solution containing 25 μg of ovalbumin intranasally, on a daily basis, from protocol days 23 through 27. A group of ovalbumin-sensitized saline-challenged mice serves as controls for systemic sensitization and respiratory challenges with ovalbumin. Prior to intranasal administrations, mice were sedated with halothane vapor. For the study of Example 1, ovalbumin-sensitized and ovalbumin-challenged mice, and ovalbumin-sensitized and saline-challenged mice will be referred to as asthmatic mice and control mice, respectively. […] To examine the effects of duration of β-adrenergic ligand therapy on the phenotype of the murine model of asthma, the experimental drugs were administered either acutely or chronically to different groups of asthmatic mice. […] These concentrations were chosen based on those producing therapeutic effects in mice in previously published studies. The non-asthmatic mice were fed normal chow. Salbutamol was delivered for 28 days at a dose of 0.5 mg/kg/day using an osmotic minipump (Alzet®, #2004, Durect Corporation, Cupertino, CA). […] Airway resistance (Raw) was measured using the forced oscillation technique. The cellular composition of bronchoalveolar lavage fluid (BALF) was also determined. […] However, it was observed that the degree of airway responsiveness and the number of eosinophils recovered in BALF were lower in non-treated asthmatic mice studied in close temporal relationship with mice receiving acute β-adrenergic antagonist treatments that in those obtained in non-treated asthmatic mice studied concomitantly with mice on chronic β-adrenergic antagonist therapy. […] The complex input impedance of the respiratory system was computed and the value of the real part of respiratory system impedance at 19.75 Hz was taken to reflect the magnitude of airway resistance (Raw). To examine the degree of airway responsiveness of each animal, the values for Raw as a function of methacholine doses were plotted. The largest value for Raw achieved in response to methacholine stimulation was referred to as […]. For mice that achieved a plateau in the methacholine dose-Raw response curve, the ED50 was calculated by linear interpolation using the GraphPad Prism4 (GraphPad Software, Inc.). Results obtained for β-adrenergic drug-treated and non-treated mice were performed using the analysis of variance for multiple groups of a Student's t-test for comparing two groups. The Bonferroni test was used to examine the statistical differences between experimental groups. The effects of acute drug treatments on baseline respiratory system mechanics were assessed using a two-tailed paired t-test. A value of P<0.05 was considered significant.

β2-adrenergic receptor [3] = assay: Determination of β-adrenergic receptor density by radioligand (ICYP) binding in lung membranes of treated asthmatic mice, Example 2; type: in vivo; settings: for change of the level of the β2-adrenergic receptor, in words: chronic treatment; for Apparent KD (of radioligand ICYP) / Bmax (β-adrenergic receptor density) / βmax (β-adrenergic receptor density): lung membranes; for Apparent KD (of radioligand ICYP): KD of ICYP binding, not of the drug; for Bmax (β-adrenergic receptor density) / βmax (β-adrenergic receptor density): mean ± SEM, n=3-5
Protocol: β2-adrenergic receptor numbers were measured in asthmatic mice as follows. […] Mice were sacrificed and lung membranes were isolated as follows. Frozen lung tissue was homogenized in an ice-cold buffer containing 0.32 M sucrose and 25 mM Tris (pH 7.4) using a polytron (Pro 200, Pro Scientific, Inc.). The homogenate was centrifuged at 1000×g for 10 min at 4° C. The resulting supernatant was centrifuged at 40,000×g for 20 min at 4° C. The pellet was suspended in an ice-cold 25 mM Tris-HCl buffer (pH 7.4) and centrifuged at 40,000×g for 20 min at 4° C. The final pellet was suspended in 200 μL of 25 mM Tris-HCl (pH 7.4); membrane protein concentration was determined by BCA protein assay kit. […] The incubation was done at 37° C. for 2 h and terminated by rapid vacuum filtration through glass fiber filters. The filters were washed three times with 250 μL of cold wash buffer (25 mM Tris-HCl, pH 7.4) and the radioactivity determined in a counter. […] Receptor densities are expressed as femtomoles of sites per milligram of protein. Bmax is determined by nonlinear regression of the saturation binding curves. […] Please note that the 15-minute and 28-day time points refer to duration of drug treatment.

[4] = cited from earlier work
β2-adrenergic receptor [5] = target: β2-adrenergic receptor (Mus musculus, UniProt P18762); assay: Upregulation of β2-adrenergic receptor density by period of administration, Example 8 / Table 2; type: in vivo, mice; set-up: from tissue
Protocol: as §1

asthmatic mice [6] = assay: Chronic treatment with metoprolol and timolol on airway responsiveness in asthmatic mice, Example 9; type: in vivo; settings: 7 days; metoprolol 20 mg/kg 3× daily s.c., timolol 20 mg/kg in chow; methacholine challenge
Protocol: Airway resistance (Raw) was measured as in Example 1. The results were compared to historical controls as shown in FIG. 9B: Ctrl, no drug treatment, no challenge with methacholine; NTX, no drug treatment, challenged with methacholine.

[7] = cited from earlier work; remark: listed apart in the source
β-arrestin pathway = assay: Blockade of the β-arrestin pathway, Example 16 / FIG. 16; type: cell-based
[8] = tested on: asthmatic mice (ovalbumin-sensitized, challenged); assay: Combination of carvedilol and salbutamol on airway hyperresponsiveness, Example 4; settings: 28 days treatment; highest dose of methacholine
Protocol: Mice (Balb/cJ) aged 6 weeks were housed under specific pathogen-free conditions and fed a chicken ovalbumin-free diet. Mice were systemically sensitized with ovalbumin adsorbed to aluminum hydroxide.
To induce airway constriction, a solution containing 150 μg/mL of methacholine was infused using a syringe infusion pump. […] Each methacholine dose was administered until a plateau was reached, during which data were sampled at 1-minute intervals for 3-5 minutes and then averaged.

asthmatic mice [9] = assay: β-adrenergic receptor drugs at low and high doses on airway resistance, Example 7; type: in vivo; settings: chronic administration in chow, high and low dose
Protocol: For these experiments, salbutamol was used for chronic administration at 0.5 mg/kg/day with a minipump and for acute administration at 0.15 mg/kg by i.v. bolus 15 minutes prior to challenge. […] Carvedilol was used at a high dose of 2400 ppm in chow or at a low dose of 720 ppm in chow. […] In these diagrams, Ctrl=control mice, non-asthmatic, non-drug treated; NTX=asthmatic mice, non-drug treated; AC=acute administration; 2d=chronic administration for 2 days; 28d=chronic administration for 28 days. The airway resistance (Raw) is plotted as cm H2O ml^−1 s.

[10] = tested on: mucous metaplasia in sensitized/challenged mice; assay: Mucous metaplasia in sensitized/challenged mice (photomicrographs), Example 10; type: in vivo; settings: sensitized/challenged mice after treatment

β2-adrenergic receptor (Mus musculus, UniProt P18762), sequence (P18762 whole entry): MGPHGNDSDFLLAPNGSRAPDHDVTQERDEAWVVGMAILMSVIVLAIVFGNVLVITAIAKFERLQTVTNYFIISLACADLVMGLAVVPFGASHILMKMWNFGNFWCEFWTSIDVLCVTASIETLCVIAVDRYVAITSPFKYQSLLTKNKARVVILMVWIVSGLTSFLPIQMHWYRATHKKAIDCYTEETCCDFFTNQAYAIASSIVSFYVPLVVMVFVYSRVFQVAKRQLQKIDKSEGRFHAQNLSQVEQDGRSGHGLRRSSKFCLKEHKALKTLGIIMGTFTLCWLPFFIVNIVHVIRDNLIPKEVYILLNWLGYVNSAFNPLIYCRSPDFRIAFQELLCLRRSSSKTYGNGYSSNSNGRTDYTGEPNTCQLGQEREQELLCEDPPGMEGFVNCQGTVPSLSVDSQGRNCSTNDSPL

Row | SMILES | Decreased Raw (asthmatic mice [1]; 15 minutes administration) | Decreased Raw (asthmatic mice [1]; 2 days administration) | Decreased Raw (asthmatic mice [1]; 28 days administration) | airway responsiveness to methacholine provocation (Raw), chronic treatment [2] | airway responsiveness to methacholine provocation (Raw), acute treatment [2] | Apparent KD (of radioligand ICYP) (β2-adrenergic receptor [3]; drug treatment 15 Minutes) | Bmax (β-adrenergic receptor density) (β2-adrenergic receptor [3]; drug treatment 15 Minutes) | Apparent KD (of radioligand ICYP) (β2-adrenergic receptor [3]; drug treatment 28 Days) | βmax (β-adrenergic receptor density) (β2-adrenergic receptor [3]; drug treatment 28 Days) | Increased β2AR density (β2-adrenergic receptor [5]; 15 minutes administration) | Increased β2AR density (β2-adrenergic receptor [5]; 2 days administration) | Increased β2AR density (β2-adrenergic receptor [5]; 28 days administration) | block of the β-arrestin pathway (β-arrestin pathway) | further results
1 | CC(C)(C)NCC(O)c1ccc(O)c(CO)c1 (stereo not drawn) [Salbutamol, salbutamol] | yes | no | no | no protection was observed | reduced the level of airway responsiveness to methacholine provocation and the level of airway resistance | (228.8 ± 33.07) pM | 256.5 ± 29.24 femtomoles of sites per milligram of protein | (225.4 ± 41.79) pM | 97.0 ± 23.02 femtomoles of sites per milligram of protein | yes | no | no | – | change of the level of the β2-adrenergic receptor, in words (β2-adrenergic receptor [3]): slight decrease; bioavailability of inhaled drug ([4]; 10 patients with cystic fibrosis versus healthy adults): greater than that in healthy adults
2 | COCCc1ccc(OCC(O)CNC(C)C)cc1 (stereo not drawn) [metoprolol] | – | – | – | – | – | – | – | – | – | – | – | – | – | airway hyperresponsiveness after chronic treatment (asthmatic mice [6]): effective in reducing airway hyperresponsiveness in asthmatic mice
3 | CC(C)(C)NC[C@H](O)COc1nsnc1N1CCOCC1 [timolol] | – | – | – | – | – | – | – | – | – | – | – | – | – | airway hyperresponsiveness after chronic treatment (asthmatic mice [6]): effective in reducing airway hyperresponsiveness in asthmatic mice
4 | OCc1cc(C(O)CNCCCCCCOCCCCc2ccccc2)ccc1O (stereo not drawn) [salmeterol] | – | – | – | – | – | – | – | – | – | – | – | – | – | time in which the majority of a dose is eliminated in the feces ([4]; in vivo): ≤ 72 h
5 | C[C@@H]1C[C@H]2[C@@H]3C[C@H](F)C4=CC(=O)C=C[C@]4(C)[C@@]3(F)[C@@H](O)C[C@]2(C)[C@@]1(O)C(=O)SCF [fluticasone] | – | – | – | – | – | – | – | – | – | – | – | – | – | first-pass hepatic metabolism of the systemically absorbed drug ([7]; inhaled drug): almost complete
6 | COc1ccccc1OCCNCC(O)COc1cccc2[nH]c3ccccc3c12 (stereo not drawn) [Carvedilol, carvedilol] | no | no | yes | reduced the responsiveness of asthmatic mice to methacholine provocation | enhanced the airway responsiveness in the asthmatic mice | (565.2 ± 192.8) pM | 86.3 ± 19.42 femtomoles of sites per milligram of protein | (1444.0 ± 202.0) pM | 904.1 ± 43.46 femtomoles of sites per milligram of protein | no | no | yes | did not block the β-arrestin pathway | increase of the level of β2-adrenergic receptors over the non-treated mice (β2-adrenergic receptor [3]; chronic administration, versus untreated methacholine-challenged asthmatic mice): over 10 fold; bronchoconstriction / airway hyperresponsiveness to allergen and methacholine challenge [8]: higher bronchoconstriction than these treatments but less than the non-drug treated sensitized and challenged (NTX S/C) mice; protection from airway hyperresponsiveness (asthmatic mice [9]): providing protection from airway hyperresponsiveness with chronic administration
7 | CCCC1O[C@@H]2C[C@H]3[C@@H]4CCC5=CC(=O)C=C[C@]5(C)[C@H]4[C@@H](O)C[C@]3(C)[C@]2(C(=O)CO)O1 (stereo partly drawn) [budesonide] | – | – | – | – | – | – | – | – | – | – | – | – | – | plasma clearance of the two enantiomers per kilogram bodyweight, children with asthma higher than healthy adults ([7]; 6 children with asthma versus 11 healthy adults): about 50%; elimination half-life ([7]; in vivo): 2.8 ± 1.1 h; plasma clearance ([7]; in vivo): 84 ± 27 L/h; plasma clearance relative to average clearance of prednisolone ([7]; in vivo): about 10 fold; systemic availability of the swallowed fraction ([7]; in vivo): 10.7±4.3%
8 | CC(C)NCC(O)COc1cccc2ccccc12 (stereo not drawn) [propranolol] | – | – | – | – | – | – | – | – | – | – | – | – | did not block the β-arrestin pathway | –
9 | C=CCc1ccccc1OCC(O)CNC(C)C (stereo not drawn) [Alprenolol, alprenolol] | yes | no | no | provides no benefit upon chronic administration | airway responsiveness was diminished | (453.6 ± 86.33) pM | 299.5 ± 12.19 femtomoles of sites per milligram of protein | (290.9 ± 55.07) pM | 179.2 ± 53.05 femtomoles of sites per milligram of protein | yes | no | no | did not block the β-arrestin pathway | change of the level of the β2-adrenergic receptor, in words (β2-adrenergic receptor [3]): slight decrease of the level of the 2-adrenergic receptor; mucous metaplasia [10]: no improvement in mucous metaplasia
10 | CC(C)(C)NCC(O)c1cc(O)cc(O)c1 (stereo not drawn) [terbutaline] | – | – | – | – | – | – | – | – | – | – | – | – | – | increase of bioavailability by the oral component ([4]; from an MDI): 6.7%; absorption through the lung ([4]; healthy smokers versus healthy nonsmokers): more rapidly in healthy smokers than in healthy nonsmokers
